Experimental findings from patent publication US8318725B2, “Aryl indolyl sulfonamide compounds and their use as 5-HT6 ligands” (Suven Life Sciences Limited, priority 2008, dated 2012) are described below.

Structures are written as SMILES.

In series [1] the target is T1, Human 5-HT6 receptor (Homo sapiens, UniProt P50406).
T1 construct: expressed in transfected cells; host or cells: HEK293
As to the kind of experiment: Binding assay for human 5-HT6 receptor ([3H] LSD radioligand). The note with it: [3H] LSD 1.5 nM, human recombinant receptor in HEK293 cells; for inhibition at 0.1 µM: 100 nM test compound, read-out: % Inhibition of specific binding at 100 nM. The protocol: Binding Assay for Human 5-HT6 Receptor
Compounds can be tested according to the following the procedures. Materials and Methods:
Receptor source: Human recombinant expressed in HEK293 cells
Radioligand: [^3H] LSD (60-80 Ci/mmol)
Final ligand concentration—[1.5 nM]
Non-specific determinant: Methiothepin mesylate—[0.1 μM]
Reference compound: Methiothepin mesylate
Positive control: Methiothepin mesylate
Reactions were carried out in […] TRIS-HCl (pH 7.4) containing 10 μM MgCl2, 0.5 mM EDTA for 60 minutes at 37° C. The reaction was terminated by rapid vacuum filtration onto glass fiber filters. Radioactivity trapped onto the filters was determined and compared to control values in order to ascertain any interactions of test compound(s) with the cloned serotonin 5-HT6binding site.
Literature Reference: Monsma F. J. Jr., et al., Molecular Cloning and Expression of Novel Serotonin Receptor with High Affinity for Tricyclic Psychotropic Drugs. Mol. Pharmacol. (43): 320-327 (1993).

The subject of series [2] is rats. As to the kind of experiment: Water maze, scopolamine induced reversal. Format: in vivo. The method, then: The water maze apparatus consisted of a circular pool (1.8 m diameter, 0.6 m high) constructed in black Perspex (TSE systems, Germany) filled with water (24±2° C.) and positioned underneath a wide-angled video camera to track animal. The 10 cm^2 perspex platform, lying 1 cm below the water surface, was placed in the centre of one of the four imaginary quadrants, which remained constant for all rats. The black Perspex used in the construction of the maze and platform offered no intramaze cues to guide escape behavior. By contrast, the training room offered several strong extramaze visual cues to aid the formation of the spatial map necessary for escape, learning. An automated tracking system, [Videomot 2 (5.51), TSE systems, Germany] was employed. This program analyzes video images acquired via a digital camera and an image acquisition board that determined path length, swim speed and the number of dutation of swim time spent in each quadrant of the water maze.

Series [3] relates to Male Wister rats. Put plainly: Object recognition task model (NORT). Format: in vivo. The protocol:
Object Recognition Task Model
The cognition-enhancing properties of compounds of this invention were estimated using a model of animal cognition: the object recognition task model.
Male Wister rats (230-280 grams) obtained from N. I. N. (National Institute of Nutrition, Hyderabad, India) were used as experimental animals. Four animals were housed in each cage. Animals were kept on 20% food deprivation before one day and given water ad libitum throughout the experiment and-maintained on a 12 hours light/dark cycle. Also the rats were habituated to individual arenas for 1 hour in the absence of any objects.
One group of 12 rats received vehicle (1 mL/Kg) orally and another set of animals received compound of the formula (I) either orally or i.p., before one hour of the familiar (T1) and choice trial (T2).
The experiment was carried out in a 50×50×50 cm open field made up of acrylic. In the familiarilation phase, (T1), the rats were placed individually in the open field for 3 minutes, in which two identical objects (plastic bottles, 12.5 cm height×5.5 cm diameter) covered in yellow masking tape alone (a1 and a2) were positioned in two adjacent corners, 10 cm. from the walls. After 24 hours of the (T1) trial for long-term memory test, the same rats were placed in the same arena as they were, placed in T1 trial. Choice phase (T2) rats were allowed to explore the open field for 3 minutes in presence of one familiar object (a3) and one novel object (b) (Amber color glass'bottle, 12 cm high and 5 cm in diameter). Familiar objects presented similar textures, colors and sizes. During the T1 and T2 trial, explorations of each object (defined as sniffing, licking, chewing or having moving vibrissae whilst directing the nose towards the object at a distance of less than 1 cm) were recorded separately by stopwatch. Sitting on an object was not regarded as exploratory activity, however, it was rarely observed. T1 is the total time spent exploring the familiar objects (a1+a2). T2 is the total time spent exploring the familiar object and novel object (a3+b).
The object recognition test was performed as described by Ennaceur, A., Delacour, J., 1988, A new one-trial test for neurobiological studies of memory in rats—Behavioral data, Behay. Brain Res., 31, 47-59.
Some representative compounds have shown positive effects indicating the increased novel object recognition viz; increased exploration time with novel object and higher discrimination index.

T1 sequence (P50406 whole entry): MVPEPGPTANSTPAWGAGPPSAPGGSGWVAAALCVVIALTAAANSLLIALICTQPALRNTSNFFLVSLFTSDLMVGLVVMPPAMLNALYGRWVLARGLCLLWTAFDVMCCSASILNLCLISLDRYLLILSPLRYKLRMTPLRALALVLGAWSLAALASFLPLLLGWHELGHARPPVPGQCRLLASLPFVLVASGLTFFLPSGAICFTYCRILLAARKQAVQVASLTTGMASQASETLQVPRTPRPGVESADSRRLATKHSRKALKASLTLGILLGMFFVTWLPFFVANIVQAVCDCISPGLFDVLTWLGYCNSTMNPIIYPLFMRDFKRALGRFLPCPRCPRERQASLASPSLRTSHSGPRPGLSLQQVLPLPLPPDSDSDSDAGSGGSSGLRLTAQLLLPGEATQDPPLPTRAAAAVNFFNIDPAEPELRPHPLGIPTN

Usually melting point stands for the temperature, or range, at which the solid turns liquid. The Ki is the equilibrium dissociation constant of an inhibitor or competing ligand from its target. In turn, `CCN1CCN(Cc2cc(S(=O)(=O)n3ccc4ccccc43)ccc2Cl)CC1.Cl.Cl` [Example 15, 1-[4-Chloro-3-(4-ethylpiperazin-1-ylmethyl)benzenesulfonyl]-1H-indole dihydrochloride] had a melting point of 196 to 197.1 °C. The Ki in series [1] was 18.4 nM.

One may read the inhibition as the percentage by which the read-out fell short of the control. `CCN1CCN(Cc2cc(S(=O)(=O)n3ccc4cc(OC)ccc43)ccc2Br)CC1` [Example 3, 1-[4-Bromo-3-(4-ethylpiperazin-1-ylmethyl)benzenesulfonyl]-5-methoxy-1H-indole] came in with a melting point of 196.1 to 198.6 °C. Further, the inhibition at 0.1 µM in series [1] turned out to be 50.5%.

As to `CN1CCN(Cc2cc(S(=O)(=O)n3ccc4cc(F)ccc43)ccc2Cl)CC1.Cl.Cl` [Example 14, 1-[4-Chloro-3-(4-methylpiperazin-1-ylmethyl)benzenesulfonyl]-5-fluoro-1H-indole dihydrochloride], the melting point is 220.2 to 221.3 °C. In addition, the inhibition at 0.1 µM in series [1] was 73%.

As to `CN1CCN(Cc2cc(S(=O)(=O)n3ccc4ccccc43)ccc2Cl)CC1.Cl.Cl` [Example 13, 1-[4-Chloro-3-(4-methylpiperazin-1-ylmethyl)benzenesulfonyl]-1H-indole dihydrochloride], the melting point was in the range of 210.6 to 213.9 °C. In series [1], the inhibition at 0.1 µM came to 83.3%.

`Cc1cn(S(=O)(=O)c2ccc(Br)c(CN3CCN(C)CC3)c2)c2ccccc12.Cl.Cl` [Example 38, 1-[4-Bromo-3-(4-methylpiperazin-1-ylmethyl)benzenesulfonyl]-3-methyl-1H-indole dihydrochloride] registered a melting point of 210.5 to 213 °C. Also, in series [1], the Ki is 9.11 nM.

`CCN1CCN(Cc2cc(S(=O)(=O)n3cc(C)c4ccccc43)ccc2Br)CC1.Cl.Cl` [Example 39, 1-[4-Bromo-3-(4-ethylpiperazin-1-ylmethyl)benzenesulfonyl]-3-methyl-1H-indole dihydrochloride] displayed a melting point of 204.1 to 206.5 °C. Also, the inhibition at 0.1 µM in series [1] came to 91.5%.

Take `CCN1CCN(Cc2cc(S(=O)(=O)n3ccc4cc(F)ccc43)ccc2Cl)CC1.Cl.Cl` [Example 25, 1-[4-Chloro-3-(4-ethylpiperazin-1-ylmethyl)benzenesulfonyl]-5-fluoro-1H-indole dihydrochloride]: the melting point lay in the range of 204.1 to 205.5 °C. In addition, the inhibition at 0.1 µM in series [1] came out at 64.8%.

As for `COc1ccc2c(ccn2S(=O)(=O)c2ccc(C)c(CN3CCN(C)CC3)c2)c1.Cl.Cl` [Example 24, 1-[4-methyl-3-(4-methylpiperazin-1-ylmethyl)benzenesulfonyl]-5-methoxy-1H-indole dihydrochloride], the melting point was in the range of 198.1 to 199.3 °C. Further, the inhibition at 0.1 µM in series [1] was found to be 62.2%.

Compound `CCN1CCN(Cc2cc(S(=O)(=O)n3cc(C)c4cc(OC)ccc43)ccc2Cl)CC1.Cl.Cl` [Example 30, 1-[4-Chloro-3-(4-ethylpiperazin-1-ylmethyl)benzenesulfonyl]-5-methoxy-3-methyl-1H-indole dihydrochloride] showed a melting point of 217.5 to 220.8 °C. Moreover, in series [1], the inhibition at 0.1 µM stood at 68%.

`CCN1CCN(Cc2cc(S(=O)(=O)n3ccc4c(Cl)cccc43)ccc2Cl)CC1.Cl.Cl` [Example 19, 1-[4-Chloro-3-(4-ethylpiperazin-1-ylmethyl)benzenesulfonyl]-4-chloro-1H-indole dihydrochloride] had a melting point of 205.9 to 207.2 °C. The inhibition at 0.1 µM in series [1] amounted to 82%.

As for `CN1CCN(Cc2cccc(S(=O)(=O)n3ccc4ccccc43)c2)CC1` [Example 8, 1-[3-(4-Methylpiperazin-1-ylmethyl)benzenesulfonyl]-1H-indole], in series [2], the “Scopolamine Induced Reversal” value is “≧30 mg/kg, p.o”. In addition, the “NORT Discriminative Index (DI), treatment” value in series [3] (10 mg/kg, p.o., vehicle value in brackets) was 0.58 (0.45). Moreover, the “NORT Inference” value in series [3] (at the dose tested (10 or 30 mg/kg, p.o.)) was “Active”. Further, the Ki in series [1] amounted to 1.91 nM.

In the case of `Cc1ccc(S(=O)(=O)n2ccc3cc(F)ccc32)cc1CN1CCN(C)CC1.Cl.Cl` [Example 43, 1-[4-Methyl-3-(4-methylpiperazin-1-ylmethyl)benzenesulfonyl]-5-fluoro-1H-indole dihydrochloride], the melting point is 220.3 to 223.4 °C. Also, the inhibition at 0.1 µM in series [1] is 86.2%.

The compound `COc1ccc2c(ccn2S(=O)(=O)c2ccc(Cl)c(CN3CCN(C)CC3)c2)c1.Cl.Cl` [Example 16, 1-[4-Chloro-3-(4-methylpiperazin-1-ylmethyl)benzenesulfonyl]-5-methoxy-1H-indole dihydrochloride] had a melting point of 208.8 to 210.2 °C. For the same compound, the inhibition at 0.1 µM in series [1] was found to be 42%.

For the compound `CCN1CCN(Cc2cc(S(=O)(=O)n3ccc4cc(Br)ccc43)ccc2Cl)CC1.Cl.Cl` [Example 29, 1-[4-Chloro-3-(4-ethylpiperazin-1-ylmethyl)benzenesulfonyl]-5-bromo-1H-indole dihydrochloride], the melting point was 208.6 to 212.8 °C. Further, in series [1], the inhibition at 0.1 µM stood at 71.8%.

In turn, `CCN1CCN(Cc2cc(S(=O)(=O)n3ccc4cc(OC)ccc43)ccc2Cl)CC1.Cl.Cl` [Example 18, 1-[4-Chloro-3-(4-ethylpiperazin-1-ylmethyl)benzenesulfonyl]-5-methoxy-1H-indole dihydrochloride] had a melting point of 209.5 to 211 °C. Besides, in series [1], the inhibition at 0.1 µM stood at 55.7%.

As for `CCN1CCN(Cc2cc(S(=O)(=O)n3ccc4cc(F)ccc43)ccc2Br)CC1` [Example 4, 1-[4-Bromo-3-(4-ethylpiperazin-1-ylmethyl)benzenesulfonyl]-5-fluoro-1H-indole], the melting point lay in the range of 92.2 to 93.9 °C. In series [1], the inhibition at 0.1 µM was determined as 62.5%.

The compound `CN1CCN(Cc2cc(S(=O)(=O)n3ccc4ccccc43)ccc2Br)CC1.Cl.Cl` [Example 21, 1-[4-Bromo-3-(4-methylpiperazin-1-ylmethyl)benzenesulfonyl]-1H-indole dihydrochloride] displayed a melting point of 214.1 to 216 °C. For the same compound, the inhibition at 0.1 µM in series [1] was 88.8%.

With `CCN1CCN(Cc2cc(S(=O)(=O)n3ccc4cc(Br)ccc43)ccc2Br)CC1.Cl.Cl` [Example 37, 1-[4-Bromo-3-(4-ethylpiperazin-1-ylmethyl)benzenesulfonyl]-5-bromo-1H-indole dihydrochloride], the melting point lay within 205.1 to 207.1 °C. In addition, in series [1], the inhibition at 0.1 µM was 55.9%.

In the case of `CN1CCN(Cc2cc(S(=O)(=O)n3ccc4c(Cl)cccc43)ccc2Cl)CC1.Cl.Cl` [Example 20, 1-[4-Chloro-3-(4-methylpiperazin-1-ylmethyl)benzenesulfonyl]-4-chloro-1H-indole dihydrochloride], the melting point fell in the range of 242.7 to 244.3 °C. Further, the inhibition at 0.1 µM in series [1] turned out to be 85.2%.

The compound `CCN1CCN(Cc2cc(S(=O)(=O)n3ccc4cc(F)ccc43)ccc2C)CC1.Cl.Cl` [Example 44, 1-[4-Methyl-3-(4-ethylpiperazin-1-ylmethyl)benzenesulfonyl]-5-fluoro-1H-indole dihydrochloride] had a melting point of 203.4 to 206.2 °C. In addition, the inhibition at 0.1 µM in series [1] was determined as 78.5%.
